Experimental data taken from patent publication US6358936B2, “Compounds for the treatment of cancer” (Ardenia Investments, Ltd., priority 1998, dated 2002).
Where “and” joins values, the source holds several entries; their conditions need not be identical. Identical values can stand only once. Entries after “also recorded” stand apart in the source; their conditions may differ. Like-named read-outs stand apart in the source and are kept apart here.

Columns and labels:
[1] = system: Ehrlich ascites carcinoma (EAC); experiment: Anti-tumour effect of DXR complexes on Ehrlich ascites carcinoma growth in ICR mice (i.v. days 2, 4, 6; tumour cells counted day 8); assay type: in vivo; conditions: DXR 3.5 mg/kg; C4 22.5 mg/kg or C5 12 mg/kg
Protocol: Random-bred albino mice of line ICR, male and female, from own rearing were used in the study. The room for animal housing was provided with filtered air at 15 changes per hour, a temperature of 19-21° C., relative humidity of 50-60% and regulated light day of 12 hours with change of light and darkness at 6 a.m. and 6 p.m. The mice were kept in transparent polycarbonate cages with a floor area of 600 cm^2 containing softwood sawdust bedding. […] The mice aged 2-2.5 months and having a weight of 19-22 g were randomly distributed in the control and test groups, standardised by mean weights. The control and test groups included 10 and 7 animals correspondingly. The mice of each group were identified by specific ear marks. The cages with animals of each group were identified by cage cards marked with the study date, group number, number and sex of the animals.
The strain of EAC was propagated in ICR mice by intraperitoneal inoculation of 0.2 ml native ascites fluid or 0.5 ml ascites fluid diluted by saline to 1:1 from one or two animals with intraperitoneally growing EAC on day 7. Ascites fluids contained more 98% of viable tumour cells according to trypan blue exclusion test. For the each study the suspension of EAC cells in sterile saline in concentration of 10^7 viable tumour cells/ml was prepared in aseptic conditions from ascites fluid of mouse bearing of EAC on day 7.
The mice of each control and experimental groups were inoculated by intraperitoneal injection of 2×10^6 EAC cells in volume of 0.2 ml at day 0. Intravenous injections for the study were carried out in lateral tail vein of mice once every other day, three times (day 2, 4 and 6) following inoculation of EAC cells. The mice of control group were injected by vehicle in volume of 2.5 ml/kg of body weight (50 μl to mouse of 20 g body weight) intravenously (negative control).
The mice were killed by cervical dislocation two days later after the final treatment with the test complexes on day 8. Ascites fluids were removed, collected, their volumes were recorded, and abdominal cavities were washed by saline 6-7 times and both fluids were pooled. After centrifugation at 1000 r.p.m. for 10 min volumes of tumour cell pellet were also recorded. Number of viable tumour cells was counted by hemocetometer. Means and standard errors for each groups were calculated. Comparison of tumour cell number in control and test groups was carried out using Student's t-test. The influence of tested preparations on EAC growth inhibition was evaluated by the following formula: [formula]

EAC [2] = conditions: for EAC growth inhibition / number of tumour cells: days 2, 4, 6, day 9
EAC cells = experiment: Antitumor effect of compound 1 and doxorubicin on EAC in C3H mice (Example 20); assay type: in vivo; conditions: for Ascites volume / Tumor cell quantity / EAC growth inhibition, % to control: days 2, 4, 6, day 9
Protocol: 20-22 g males of C3H mice were used. Control and experimental groups included 7 animals, which were inoculated 5×10^6 EAC cells i.p. in volume 0.2 ml at day 0. […] One group of mice was untreated control. Results of experiment were accounted on ninth day. Mice were killed by cervical dislocation. Ascitic fluids were removed, collected, their volumes were measured, and abdominal cavities were washed by saline solution 6-7 times. Thus obtained fluids were pooled. The number of viable tumor cells was counted by hemocytometer, using trypan blue exclusion test. The mean and the standard mean error was calculated for each group of mice. Comparison of tumor cell number in control and experimental groups was carried out using Student t-test. Influence of tested preparation on EAC growth inhibition was evaluated by: [formula]

EAC [3] = experiment: Effect of compound 1 with AFP on growth of EAC in C3H mice (Example 21); assay type: in vivo; conditions: compound 1 1 mg/kg (20 μg/mouse) i.v. ×3, AFP none
Protocol: The influence of compound with different amount of AFP on the growth of EAC was studied. The experiments were carried out on inbred C3H mice having initial weight of 20-23 g. The used tumor cell strain was supported by i.p. passages to mice of the same line. At the beginning of the research (day 0) four groups, each of which contained 7 mice, were formed. All of the animals were inoculated by tumour cells in saline solution i.p. (5·10^6 cells in 0,2 ml per a mouse).
The first group of animals was untreated (negative control). The mice were injected by NMS. […] The animals of third and fourth groups were injected the same dose of compound 1, the protein being added to NMS (2,5 and 5 μg/mouse, accordingly). On the ninth day after inoculation by EAC cells the mice were killed and ascitic fluids were collected and estimated quantitatively. Tumor cells suspensions were prepared and aliquotes were mixed with equal volume of 0,1% trypan blue solution. The quantity of tumor cells were counted with hemocytometer.
Results of the experiments were evaluated by means of variation statistics method using Student t-test. The values of inhibiting effects of the preparations were represented as percentage in comparison with control.

[4] = doxorubicin dose 1 mg/kg i.v. in NMS
[5] = doxorubicin dose 2.5 mg/kg i.v. in NMS
[6] = dose 20 μg/mouse i.v. (doxorubicin equivalent, 1 mg/kg)
[7] = dose 20 μg/mouse i.v. (doxorubicin equivalent, 1 mg/kg), 1 mg/kg
[8] = dose 50 μg/mouse i.v. (doxorubicin equivalent, 2.5 mg/kg)
[9] = dose 100 μg/mouse i.v. (doxorubicin equivalent, 5 mg/kg)
[10] = doses corresponding to 1 and 2.5 mg/kg of doxorubicin

SMILES | influence of the compound on the anti-tumour action of DXR in the DXR/compound complex [1] | EAC growth inhibition (EAC [2]; [4]) [%] | number of tumour cells (EAC [2]; [4]) | number of tumour cells (EAC [2]; [5]) | Ascites volume (EAC cells; [6]) [mL] | Tumor cell quantity (EAC cells; [6]) | EAC growth inhibition, % to control (EAC cells; [7]) [%] | Ascites volume (EAC cells; [8]) [mL] | Tumor cell quantity (EAC cells; [8]) | Ascites volume (EAC cells; [9]) [mL] | Tumor cell quantity (EAC cells; [9]) | further results
CC1=C(/C=C/C(C)=C/C=C/C(C)=C/C(=O)N[C@@H](Cc2ccc(OP(=O)(O)O)cc2)C(=O)O)C(C)(C)CCC1 (stereo in doubt) [C4, N-(all-trans-retinoyl)-o-phospho-L-tyrosine] | cancelled the anti-tumour action of DXR | – | – | – | – | – | – | – | – | – | – | –
CCCCC/C=C\C/C=C\C/C=C\C/C=C\CCCC(=O)NCCOP(=O)(O)O [C5, N-arachidonoyl-o-phospho-2-aminoethanol] | canceled the anti-tumour action of DXR; also recorded: cancelled the anti-tumour action of DXR | – | – | – | – | – | – | – | – | – | – | –
COc1cccc2c1C(=O)c1c(O)c3c(c(O)c1C2=O)C[C@@](O)(C(=O)CO)C[C@@H]3O[C@H]1C[C@H](N)[C@H](O)[C@H](C)O1 [DXR, doxorubicin, reference compound] | – | 34.8 | 635.9±122.78 ×10^6 | 537.4±92.89 ×10^6 | 2.85 ± 1.35 | 765.8 ± 127.52 × 10^6 | 36.9 | 1.85 ± 1.10 | 662.1 ± 99.17 × 10^6 | 0.80 ± 0.60 | 350.0 ± 108.21 × 10^6 | EAC growth inhibition, % to control (EAC cells; [9]): 71.2%
CC/C=C\C/C=C\C/C=C\C/C=C\C/C=C\C/C=C\CCC(=O)N[C@H](C(=O)O)[C@@H](C)OP(=O)(O)O [C11, N-docosahexaenoyl-o-phospho-L-threonine] | canceled the anti-tumour action of DXR | – | – | – | – | – | – | – | – | – | – | –
COc1cccc2c1C(=O)c1c(O)c3c(c(O)c1C2=O)C[C@@](O)(C(=O)CO)C[C@@H]3O[C@H]1C[C@H](NC(=O)\C=C(C)/C=C/C=C(C)/C=C/C2=C(C)CCCC2(C)C)[C@H](O)[C@H](C)O1 (relative stereo) [Compound 2, N-(13-cis-retinoyl)-doxorubicin] | – | 45.3 | 533.5±94.23 ×10^6 | 405.7±120.62 ×10^6 | – | – | – | – | – | – | – | antitumor effect in respect to EAC (EAC [2]; [10]): exceeding the effect of doxorubicin alone; EAC growth inhibition (EAC [2]; [5]): 58.4%
COc1cccc2c1C(=O)c1c(O)c3c(c(O)c1C2=O)CC(O)(C(=O)CO)CC3OC1CC(NC(=O)/C=C(C)/C=C/C=C(C)/C=C/C2=C(C)CCCC2(C)C)C(O)C(C)O1 (stereo not drawn) [Compound 1, N-(all-trans-retinoyl)-doxorubicin] | – | – | – | – | 3.50 ± 1.30 | 640.0 ± 78.04 × 10^6 | 47.3 | 2.10 ± 1.70 | 535.0 ± 167.90 × 10^6 | 3.30 ± 1.20 | 571.4 ± 66.96 × 10^6 | Ascites volume (EAC [3]): 2.0 ± 0.25 mL; Tumor cell quantity (EAC [3]): 1185.7 ± 266.2 × 10^6; EAC growth inhibition, % to control (EAC [3]; 1 mg/kg): 45.0%; EAC growth inhibition, % to control (EAC [3]; listed as compound 1, 1 mg/kg): 45%; EAC growth inhibition, % to control (EAC cells; dose 20 μg/mouse i.v. (doxorubicin equivalent, 1 mg/kg), listed as compound 1, 1 mg/kg): 47%; EAC growth inhibition, % to control (EAC cells; dose 50 μg/mouse i.v. (doxorubicin equivalent, 2.5 mg/kg), 2.5 mg/kg): 55.9%; EAC growth inhibition, % to control (EAC cells; dose 50 μg/mouse i.v. (doxorubicin equivalent, 2.5 mg/kg), listed as compound 1, 2.5 mg/kg): 57% and 56%; EAC growth inhibition, % to control (EAC cells; dose 100 μg/mouse i.v. (doxorubicin equivalent, 5 mg/kg), 5 mg/kg): 52.9%; EAC growth inhibition, % to control (EAC cells; dose 100 μg/mouse i.v. (doxorubicin equivalent, 5 mg/kg), listed as compound 1, 5 mg/kg): 53%; anti-tumour effect towards EAC (EAC cells; [10]): exerts high anti-tumour effect towards EAC
